“And” between values parts separate entries of the source, which are not always exact repeats. Equal entries are not always repeated. “Also recorded” adds a separate entry of the source. Where two headings read alike, the source gives them in different places. Marks after values point to notes of the source that are not given here.
Key:
[1] = test system: Rat vascular smooth muscle cells; assay: SMC proliferation, cell count by flow cytometry; format: cell-based; settings: 24 hours incubation, cells counted by flow cytometry, read-out: IC50 on inhibition of smooth muscle cell growth
Method: SMC were plated on 6 well dishes at a density of 2×10^5 cells per well. Cells were then treated with Didox (0-200 μM), Imidate (0-200 μM) or HU (0-1000 μM) and incubated for 24 hours. Following the 24 hour incubation period, the cells were trypsinized and collected in 15 mL centrifuge tubes. The cells were then centrifuged 5 minutes at 800×g. The supernatant was discarded and the pellet was resuspended in 5 ml PBS. The cells were centrifuged 6 minutes at 200×g. The supernatant was removed and the pellet was then thoroughly resuspended in 0.5 ml PBS. The cell suspension was transferred into tubes containing 70% ethanol, keeping the cells in fixative for greater than about 2 hours. The ethanol suspended cells were centrifuged 5 minutes at 200×g, and the ethanol was decanted. The cell pellet was resuspended in 5 ml PBS and after one minute was centrifuged 5 min at 200×g. The top layer of liquid was again removed and the cell pellet was resuspended in 1 ml PI/Triton X-100 staining solution with RNAse A. This staining solution was then incubated at room temperature for 30 minutes. Flow cytometry was then performed using a FACS Calibur (Becton Dickenson). The data are presented as the mean.
Didox, Imidate, and to a much lesser degree, HU, are known to be ribonucleotide reductase inhibitors (Elford, (1968) Biochem Biophys Res Commun 33:129-135; Elford et al., (1970) J Biol Chem 245:5228-5233; Elford et al., (1979) Cancer Res 39:844-851). ribonucleotide reductase catalyzes the reductive conversion of ribonucleotides to deoxynucleotides. This reductive reaction is a prime target for impeding cellular proliferation, and therefore amenable to inhibiting VSMC replication, because it is a rate limiting step in the biochemical pathway leading to DNA synthesis (Elford et al., (1970) J Biol Chem 245:5228-5233; Elford et al., (1979) Cancer Res 39:844-851; Takeda and Weber, (1981) Life Sci 28:1007-1014; Natsumeda et al., (1985) Cancer Res 45:2556-2559). […] Therefore, the IC50 of each compound on inhibition of smooth muscle cell growth was determined. […]

[2] = test system: rat carotid artery, balloon mediated injury (restenosis); assay: Rat balloon carotid injury (Example 2), morphometric analysis at 2 and 6 weeks; format: in vivo; settings: for decrease in neointimal area / decrease in intima/media ratio: 200 mg kg^-1 d^-1 i.p. for 7 days
Source text: Male Wistar rats, weighing 400-450 g (Harlan) were fed standard pellet feed and given water ad libitum. The experimental protocol was designed in accordance with Institutional ILACUC standards. Animals were anesthetized with Isoflurane (1.5-2%) in air. The right carotid artery was exposed and a 2F Fogarty balloon embolectomy catheter (Baxter) was inserted via an external carotid arteriotomy incision. The catheter was advanced to the common carotid artery, inflated to a pressure of 2 atm and rotated in a forward and retrograde direction. The catheter was then deflated and the process repeated three times. Treatment cohorts were divided into 5 groups (n=6-8/group): Control (sham operated), Didox (200 mg-kg^−1 d^−1), Imidate (200 mg kg^−1)HU (200 mg kg^−1 d^−1) and vehicle (saline). Drugs were administered daily by i.p. injection for a period of 7 days after injury. At 2 weeks post-injury, rats were euthanized by pentobarbital overdose and perfused with 10% buffered formalin Carotid arteries were removed and placed in the same fixative. Tissues were then embedded in paraffin, and 4 to 5 sections (4 μm) were cut at multiple levels. These sections were then stained with hematoxylin-eosin or elastic-van Gieson stain. Sections were examined microscopically and the cross-sectional areas of the lumen, neointima (from the internal elastic lamina to the lumen), and media were determined using digital microscopy with Spot Advanced software. The intima-to-media (I/M) ratio was then calculated from the determined mean. The data represent the mean±SD.
The effects of Didox, Imidate, and Hydroxyurea (HU) on the vascular remodeling process following arterial injury were determined using a rat model of balloon mediated carotid injury. Each compound (200 mg kg^−1 d^−1) was delivered via i.p. injection for a period of 7 days post injury. These dosages are based on previously published reports and represent ½ the maximum tolerated dose of Hydroyurea in rats (Gupta and Yaffe, (1982) Pediatr Pharmacol (New York) 2:85-91; Vaughan et al., (1989) Cancer Chemother Pharmacol 23:26-30).
At 14 days post injury the animals were sacrificed and morphometric analysis was carried out in order to asses the histopathological changes in the vessel wall (FIG. 1). […] HU afforded similar vascular protective effects to those observed with Didox and Imidate, resulting in a 55% decrease in neointimal area and a 63% decrease in intima/media ratio (FIG. 2). […] However, because the remodeling process occurs over a prolonged period of time, additional studies were performed in order to determine whether the vascular protective effects observed would be mitigated over time.
To further investigate long-term efficacy of the one week dosing regimen, the duration of the study period was increased to 6 weeks. […] The beneficial effect of ribonucleotide reductase inhibition persisted over the long term. Each compound (200 mg kg^−1 d^−1) was given i.p. for a period of 7 days followed by a 5 week recovery period. […] Similarly, Imidate offered a 61% reduction in neointimal area and a 62% reduction in intima/media ratio (FIG. 3).

SMC dATP pools = assay: Intracellular dNTP quantitation (dATP pools) by HPLC; format: cell-based, rat; settings: 24 hours; for dATP levels: control 303; for maximal reduction in dATP content: Didox 0-200 μM, Imidate 0-200 μM, HU 0-1000 μM
Method: SMC were plated in T150 flasks and treated with Didox (0-200 μM), Imidate (0-200 μM) or HU (0-1000 μM) and incubated for 24 hours. Following the 24 hour incubation period, the cells were trypsinized and collected in 50 mL centrifuge tubes along with the incubation media. All the extraction steps were performed on ice. Immediately before processing, cells were counted and viability determined using the trypan blue exclusion method. The cells were then centrifuged 5 minutes at 800×g. The cell pellet was then deproteinized with the same volume of 6% TCA, vortexed for 20 s and incubated on ice for 10 minutes. The acid cell extracts were centrifuged 10 min at 2000×g. The supernatants were then supplemented with an equal volume of distilled water, vortexed for 60 s and neutralized by the addition of 5M K2CO3 prior to HPLC analysis. dNTP detection was carried out using an ESA (Chelmsford, Mass.) HPLC chromatographic system with UV-Vis detection. Chromatographic separations were performed using a TosoHaas C18 reverse phase column (ODS 80Tm 250×4.6 mm, 5 μm pore). The mobile phase was delivered at a rate of 1.0 mL/min during the analysis using the following stepwise gradient elution program: A-B (80-20) at 0 min; (40-60) at 30 min; (40-60) at 40 min and (80-20) at 45 min. Buffer A contained 10 mM tetrabutylammonium sulfate, 10 mM KH2PO4 and 0.25% MeOH, and adjusted to pH 6.9. Buffer B consisted of 5.6 mM tetrabutylammonium sulfate, 50 mM KH2PO4 and 30% MeOH, and neutralized to pH 7.0. The injection volume for analysis was 50 μL. Detection was carried out at 254 nm.
In order to further validate that the observed anti-proliferative properties afforded by these compounds was through inhibition of ribonucleotide reductase activity, the effects of these compounds on intracellular dATP pools were measured.

rat vascular SMC = assay: Smooth muscle cell migration, wound scrape assay with PDGF; format: cell-based; settings: for SMC migratory rate: 100 μM, PDGF 10 ng/mL, 24 hour period, control 15.8
Method: A wound scrape assay was performed using rat vascular SMC. The cells were grown to confluence on 60 mm dishes. The cells were then made quiescent by incubating them in media containing 0.1% serum for 24 hrs followed by treatment with Didox, Imidate (0-100 μM), or HU (0-1000 μM) in media containing 0.1% serum and platelet derived growth factor (PDGF) at concentration of 10 ng/mL. Linear wounds were made by scraping each plate with the tip of a 20 μL pipette. The ability of cells to migrate across the wound area was measured using digital microscopy. SPOT advanced software (Diagnostic Instruments, Inc., Sterling Heights, Mich.) was used to measure the wound immediately, 2, 4, 12 and 24 hrs following injury. The data are presented as rate of migration and represent the mean±SD.
SMC migration is also a component of neointimal proliferation. Therefore, additional studies were performed in order to determine the effects of these compounds on SMC migration. Using a wound scrape assay, SMC migration studies were carried out in the presence of Didox, Imidate, and HU. VSMC's were cultured to confluence on 60 mm dishes. The cells were made quiescent by incubating in media containing 0.1% serum. Following 24 hours of serum deprivation, Didox, Imidate, and HU were added to the wells (10-1000 μM) in the presence of PDGF (10 ng/mL) and a linear wound was made across the plate. SMC migration across the wound was monitored by digital microscopy over a 24 hour period. […] In contrast, HU (100 μM) had little effect on SMC migration, resulting in a migratory rate of […] (FIG. 4). […] This would be expected to contribute to the vascular protective effects afforded by these drugs.

[3] = test system: rat carotid artery, balloon mediated injury (restenosis); assay: Rat model of balloon mediated carotid artery injury (Example 1), morphometric analysis; format: in vivo; settings: two weeks post injury; intraperitoneal injection; vs untreated injured artery
Method: To determine the ability of the ribonucleotide reductase inhibitors to affect restenosis, a rat model of balloon mediated carotid artery injury was utilized. Percutaneous transluminal carotid angioplasty (PTCA) was performed using a 2F Fogarty Embolectomy Catheter, which was inserted through the right, external carotid artery and inflated (2 atm) and deflated four times inside the right common carotid artery and rotated to cause endothelial injury. Immediately following the carotid injury, the rats received ribonucleotide reductase inhibitors, Didox (N,3,4-trihydroxybenzamide) Imidate (ethyl-3,4,5-trihydroxybenzenecarboximidate.HCl), or Hydroxyurea via intraperitoneal injection. The degree of restenosis was assessed using morphometric analysis at two weeks post injury.

[4] = 6 weeks post injury, 5 week recovery

Row | Compound | IC50 [1] [µM] | decrease in neointimal area [2, 4] [%] | decrease in intima/media ratio ([2]; 14 days post injury) | decrease in neointimal area ([2]; 14 days post injury) [%] | dATP levels (SMC dATP pools; 5 μM) [Pmoles/10^7 cells] | dATP levels (SMC dATP pools; 10 μM) [Pmoles/10^7 cells] | dATP levels (SMC dATP pools; 50 μM) | dATP levels (SMC dATP pools; 100 μM) | dATP levels (SMC dATP pools; 200 μM) | maximal reduction in dATP content (SMC dATP pools) [%] | SMC migratory rate (rat vascular SMC) [µm/h] | IC50 ([1]; Rattus norvegicus) [µM] | dATP levels (SMC dATP pools; 500 μM) [Pmoles/10^7 cells] | dATP levels (SMC dATP pools; 1000 μM) [Pmoles/10^7 cells] | Lumen, % change as compared to injured vessel (increase in lumen area) [3] | Neointima, % change as compared to injured vessel (decrease in neointimal formation) [3] | Neointima/Media, % change as compared to injured vessel (reduction in intima/media ratio) [3] | Wall Thickness, % change as compared to injured vessel (reduction) [3] | effect on SMC migration (rat vascular SMC; HU concentrations up to 1 mM, listed as HU) | change in medial area ([2]; one week of systemic administration after balloon injury)
1 | O=C(NO)c1ccc(O)c(O)c1 [Didox, N-3,4-trihydroxybenzamide] | 67 | 64 | 61% and 60% | 62 | 297 | 260 | 203* Pmoles/10^7 cells | 140* Pmoles/10^7 cells | 126* Pmoles/10^7 cells | 58 | 1.7 |  |  |  |  |  |  |  |  | 
2 | NC(=O)NO [Hydroxyurea, reference compound] |  | 71 | 63% | 55 | 320 |  |  | 266 Pmoles/10^7 cells |  | 69 | 15.1 | 266 | 93 | 92 | ↑22 ± 5% | ↓ 91 ± 6% | ↓ 93 ± 7% | ↓ 54 ± 9% | No further inhibition; also recorded: no effect on SMC migration | 
3 | CCOC(=N)c1cc(O)c(O)c(O)c1.Cl [Imidate, ethyl-3,4,5-trihydroxybenzenecarboximidate-HCl] |  | 61 | 55% and 60% | 57 | 293 | 311 | 210 Pmoles/10^7 cells | 184* Pmoles/10^7 cells | 173* Pmoles/10^7 cells | 42 | 0.9 | 82 |  |  | ↑19 ± 5% | ↓ 65 ± 7% | ↓ 69 ± 8% | ↓ 41 ± 7% |  | small but statistically significant decrease in medial area

Source: patent publication US8932617B2, “Methods for treating or preventing restenosis and other vascular proliferative disorders” (priority 2004, dated 2015)
